Laboratory results reported in patent publication US5218114A, “Cholecystokinin antagonists” (Merck & Co., Inc., priority 1992, dated 1993).
Where two headings read alike, the source gives them in different places. Square brackets hold non-standard residues; d marks the D form. Peptide text beside a SMILES is read from it. * marks the point of attachment. sY = N[C@@H](Cc1ccc(OS(=O)(=O)O)cc1)C(=O)O; Cbz = O=C(OCc1ccccc1)*

Legend:
[1] = tested on: CCK-B receptors; settings: Bock et al., J. Med. Chem., 32, 13-16 (1989); cited from earlier work
[2] = tested on: CCK receptor; settings: literature; cited from earlier work
[3] = target: T1, CCK receptor (brain, cortex) (Cavia porcellus, UniProt H0VZC5); assay: CCK Receptor Binding (Brain); design: species or system guinea pig (male Hartley)
T1 construct: the cortex was removed and homogenized in 25 mL ice-cold 0.32M sucrose; from tissue; host or cells: guinea pig brain cortex, P2 membranes
T1 sequence (H0VZC5 1-426): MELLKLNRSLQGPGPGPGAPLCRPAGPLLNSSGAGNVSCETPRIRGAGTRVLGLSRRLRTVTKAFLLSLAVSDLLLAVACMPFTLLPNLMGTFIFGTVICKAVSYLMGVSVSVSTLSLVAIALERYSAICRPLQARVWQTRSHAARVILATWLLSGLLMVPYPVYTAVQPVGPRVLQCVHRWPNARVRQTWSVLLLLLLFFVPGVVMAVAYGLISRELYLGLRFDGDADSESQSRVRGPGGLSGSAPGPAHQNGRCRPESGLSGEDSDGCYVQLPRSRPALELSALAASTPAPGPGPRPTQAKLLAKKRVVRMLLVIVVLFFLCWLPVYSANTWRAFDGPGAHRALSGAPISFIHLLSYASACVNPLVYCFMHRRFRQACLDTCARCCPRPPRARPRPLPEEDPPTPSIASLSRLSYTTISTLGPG
Procedure: 2. CCK Receptor Binding (Brain)
CCK-8 sulphated was radiolabelled and the binding was performed according to the description for the pancreas method with minor modifications.
Male Hartley guinea pigs (300-500 g) were sacrificed by decapitation and the cortex was removed and homogenized in 25 mL ice-cold 0.32M sucrose. The homogenates were centrifuged at 1000 g for 10 minutes and the resulting supernatant was recentrifuged at 20,000 g for 20 minutes. […] All assays were run in duplicate. The reaction mixtures were incubated at 25° C. for 2 hours and then the reaction was terminated on Whatman GF/C filters by rapid filtration (Brandell 24 well cell Harvester) with 3×5 ml washes of cold 100 mM NaCl. The radioactivity on the filters was then counted with a LKB gamma counter.
(§1) Drug displacement studies were performed with at least 10 concentrations of compounds of formula 1 and the IC50 values were determined by regression analysis.

[4] = target: T2, CCK receptor (pancreas) (Rattus norvegicus, UniProt P30551); assay: CCK Receptor Binding (Pancreas); design: species or system rat (male Sprague-Dawley)
T2 construct: The whole pancreas was dissected free of fat tissue and was homogenized; from tissue; host or cells: rat whole pancreas, homogenate membranes
T2 sequence (P30551 1-444): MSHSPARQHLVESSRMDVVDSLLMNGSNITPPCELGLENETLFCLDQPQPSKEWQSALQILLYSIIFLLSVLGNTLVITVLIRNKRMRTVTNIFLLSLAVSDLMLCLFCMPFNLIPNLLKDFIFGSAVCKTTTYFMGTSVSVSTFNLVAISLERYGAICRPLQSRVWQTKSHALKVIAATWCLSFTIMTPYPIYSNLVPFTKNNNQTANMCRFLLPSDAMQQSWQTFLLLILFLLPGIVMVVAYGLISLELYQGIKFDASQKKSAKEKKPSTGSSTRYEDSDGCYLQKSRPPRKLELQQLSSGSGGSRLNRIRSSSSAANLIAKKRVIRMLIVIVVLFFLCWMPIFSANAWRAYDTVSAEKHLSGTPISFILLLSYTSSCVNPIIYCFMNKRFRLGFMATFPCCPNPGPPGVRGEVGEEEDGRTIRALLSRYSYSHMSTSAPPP
Procedure: 1. CCK Receptor Binding (Pancreas)
CCK-8 sulphated was radiolabelled with ^125 I-Bolton Hunter reagent (2000 Ci/mmole). Receptor binding was performed according to Chang and Lotti (Proc. Natl. Acad. Sci. 83, 4923-4926, 1986) with minor modifications.
Male Sprague-Dawley rats (150-200 g) were sacrificed by decapitation. The whole pancreas was dissected free of fat tissue and was homogenized in 25 volumes of ice-cold 10 mM Hepes buffer with 0.1% soya bean trypsin inhibitor (pH 7.4 at 25° C.) with a Kinematica Polytron. The homogenates were centrifuged at 47,800 g for 10 min. Pellets were resuspended in 10 volumes of binding assay buffer (20 mM Hepes, 1 mM EGTA, 5 mM MgCl2, 150 mM NaCl, bacitracin 0.25 mg/ml, soya bean trypsin inhibitor 0.1 mg/ml, and bovine serum albumin 2 mg/ml, pH 6.5 at 25° C.) using a teflon homogenizer, 15 strokes at 500 rpm. The homogenate was further diluted in binding assay buffer to give a final concentration of 0.5 mg original wet weight/1 ml buffer. […] All assays were run in duplicate. The reaction mixtures were incubated at 25° C. for 2 hours and the reaction terminated by rapid filtration (Brandell 24 well cell harvester) over Whatman GF/C filters, washing 3×4 mls with ice-cold 100 mM NaCl. The radioactivity on the filters was counted with a LKB gamma counter.
as §1

[5] = tested on: gastrin; settings: J. Martinez, J. Med. Chem. 27, 1597 (1984); cited from earlier work
[6] = 125I-CCK-8 50 pM, guinea pig cortex, 25° C., 2 hours, read-out: CCK RECEPTOR BINDING RESULTS IC50, 125I-CCK Brain
[7] = 125I-CCK-8 50 pM, rat pancreas, 25° C., 2 hours, read-out: CCK RECEPTOR BINDING RESULTS IC50, 125I-CCK Pancreas

Cc1cccc(NC(=O)N[C@@H]2N=C(c3ccccc3)c3ccccc3N(C)C2=O)c1 [(R)-N-(2,3-dihydro-1-methyl-2-oxo-5-phenyl-1H-1,4-benzodiazepin-3-yl)-N^1-(3-methylphenyl) urea]
antagonist of CCK-B receptors [1]: potent and selective antagonist of CCK-B receptors

CSCC[C@H](NC(=O)[C@H](Cc1ccc(OS(=O)(=O)O)cc1)NC(=O)OCc1ccccc1)C(=O)NCC(=O)N[C@@H](Cc1c[nH]c2ccccc12)C(=O)N[C@@H](CCSC)C(=O)N[C@@H](CC(=O)O)C(N)=O [Cbz--Tyr(SO3 H)--Met--Gly--Trp--Met--Asp--NH2] (Cbz-[sY]MGWMD-NH2)
CCK-receptor antagonist potency / agonism [2]: partial agonist

O=C(Nc1ccc(Cl)cc1)NC1N=C(c2ccccc2)c2ccccc2N(Cc2nnn[nH]2)C1=O (centres unmarked) [Example 1, N-{1,3-Dihydro-1-[1H-tetrazol-5yl]methyl-2-oxo-5-phenyl-1H-1,4-benzodiazepin-3-yl}-N'-{[4-chlorophenyl]-urea}]
IC50 [3, 6]: 494 nM
IC50 [4]: 2130 nM

O=C(Nc1ccc(Cl)cc1)NC1N=C(c2ccccc2)c2ccccc2N(CC(O)CN2CCCC2)C1=O (centres unmarked) [Example 2, N-{1,3-Dihydro-1-[3-((pyrrolidinyl)-2-hydroxy)propyl]-2-oxo-5-phenyl-1H-1,4-benzodiazepin-3-yl}-N'-{[4-chlorophenyl]-urea}]
IC50 [3, 6]: 300 nM
IC50 [4]: > 3000 nM

CN(C)CC(O)CN1C(=O)C(NC(=O)Nc2ccc(Cl)cc2)N=C(c2ccccc2)c2ccccc21 (centres unmarked) [Example 3, N-{1,3-Dihydro-1-[3-((dimethylamino)-2-hydroxy)propyl]-2-oxo-5-phenyl-1H-1,4-benzodiazepin-3-yl}-N'-{[4-chlorophenyl]-urea}]
IC50 [3, 6]: 430 nM
IC50 [4]: > 3000 nM

O=C(Nc1ccc(Cl)cc1)NC1N=C(c2ccccc2)c2ccccc2N(CC(Cl)CO)C1=O (centres unmarked) [Example 4, N-{1,3-Dihydro-1-[3-((hydroxy)-2-chloro)propyl]-2-oxo-5-phenyl-1H-1,4-benzodiazepin-3-yl}-N'-{[4-chlorophenyl]-urea}]
IC50 [3, 6]: 62 nM
IC50 [4, 7]: > 3000 nM

O=C(Nc1ccc(Cl)cc1)NC1N=C(c2ccccc2)c2ccccc2N(CC(O)CO)C1=O (centres unmarked) [Example 5, N-{1,3-Dihydro-1-[2,3-(dihydroxy)propyl]-2-oxo-5-phenyl-1H-1,4-benzodiazepin-3-yl}-N'-{[4-chlorophenyl]-urea}]
IC50 [3]: 118 nM
IC50 [4, 7]: > 3000 nM

CCCC(=O)Nc1nc2c(ncn2[C@@H]2O[C@@H]3COP(=O)(O)O[C@H]3[C@H]2OC(=O)CCC)c(=O)[nH]1 [dibutyryl cyclic GMP]
CCK-receptor antagonist potency / agonism [2]: the most potent

CCCN(CCC)C(=O)C(CCC(=O)O)NC(=O)c1ccccc1 (centres unmarked) [proglumide]
in vitro gastrin antagonism [5]: very weak in vitro antagonists
